Data set [1] is classed as physicochemical. As to the method: The boiling point was determined from the temperature and pressure of the vapor at the top of the distillation column.
A short description of the next data set: Flash point (JIS-K2265). The format is physicochemical.
The conditions of data set [2]: for Solubility (In water) / Solubility (Water in): 20° C.; for Solubility (In water): solubility of the sample compound in water; for Solubility (In water) / solubility in water: 30 min; for Solubility (Water in): solubility of water in the sample compound; for solubility in water: Table 2. As to the method:
(3) Solubility ("water in" and "in water")
10 g of a sample compound (liquid) was mixed with 10 g of water and then allowed to stand still for 30 minutes, so that the mixture was permitted to separate into a sample compound layer and an aqueous layer. Then, the water content of the sample compound layer was measured using a Karl Fischer moisture meter manufactured by Kyoto Electronics Co., Ltd., Japan, and the obtained value was taken as a solubility of water in the sample compound. The content of the sample compound in the aqueous layer was measured using GC and the obtained value was taken as a solubility of the sample compound in water.

For data set [3] the following is noted: background, result in words; cited from earlier work.
The nature of another data set: Separability from water. The format is physicochemical. To be noted: result in words. As to the method: (6) Separability from Water
An equivolume mixture of a sample compound and water was vigorously shaken and then allowed to stand. After a period of 5 minutes, the degree of separation of the sample compound from water was judged by the naked eye.

A further data set in a line: Viscosity. The format is physicochemical. As to conditions: 25° C. The method, then: The viscosity was measured at 25° C. using a digital viscometer (Model DVL-B, manufactured by Toki Sangyo Co., Ltd., Japan).
A short description of another data set: Relative drying rate. The format is physicochemical. As to conditions: 50° C., 20 minutes; relative to Elease M-9000. As to the method:
(10) Relative Drying Rate
(§1) 10 g of a sample compound and 10 g of a glycol ether-type detergent (Elease M-9000, manufactured by Asahi Kasei Kogyo K.K., Japan) were individually placed in an oven and heated at 50° C. for 20 minutes. Then, a measurement was done with respect to the decrease in the weight of the sample compound as well as the decrease in the weight of Elease M-9000. The relative drying rate was calculated according to the following formula: [formula] (11) Oil Solubility Characteristics

The nature of data set [4]: Oil solubility characteristics. It is filed as physicochemical. As to conditions: 100 g sample compound. The method, then: as §1
Each of the oils mentioned below was individually added to 100 g of a sample compound while stirring until a saturation of the sample compound with the oil was reached. The solubility (%) was expressed in terms of the percent expression of the weight of the oil dissolved in 100 g of the sample compound, with the dissolution of 100 g of the oil being taken as 100%. For example, when the amount of the oil dissolved was n g, the solubility was expressed as n %. The above-mentioned oils were: a mineral oil (Smoil PS-260, manufactured by Matsumura Sekiyu Kenkyusho, Japan), a drawing oil (Daphne Masterdraw 533WD, manufactured by Idemitsu Kosan Co., Ltd., Japan), a press oil (Uni Press DP-120, manufactured by Nippon Sekiyu Co., Ltd., Japan) and a rosin oil (sold by Kishida Kagaku Co., Ltd., Japan).

Data set [5] is described as follows: Overall comparison of properties in Table 2. To be noted: Table 2 comparison in words. As to the method: Properties of the product were measured and results of the measurements are shown in Table 2, together with those of Example 1 for easy comparison.

Each structure is given as a SMILES string. Where two headings read alike, the source gives them in different places.

With `COCC(C)OC(C)=O` (stereo not drawn) [compound 4, Propylene glycol methyl ether acetate], the Boiling point in data set [1] came to 146 °C. This molecule had a Flash point in the data set “Flash point (JIS-K2265)” of 47 °C. For the same molecule, in data set [2], the “Solubility (In water)” value is 3.0% and the “Solubility (Water in)” value is reported as 19.0%.
`CCCCCCOCCOCCO` [diethylene glycol monohexyl ether]: the viscosity – broadly, the resistance of a fluid to flow – in data set [3] is reported as “disadvantageously high viscosity”.
For `CCCCCCOCCOCCO` [Comparative Example 2, Diethylene glycol mono-n-hexyl ether], the separability from water entry in “Separability from water” is listed as “good”. Besides, in the data set “Flash point (JIS-K2265)”, the Flash point was determined as 140 °C.
In the case of `CCCCOCCOCCO` [Comparative Example 7, Diethylene glycol monobutyl ether], in the data set “Separability from water”, the separability from water entry is recorded as “poor”. This molecule came in with a Flash point in the data set “Flash point (JIS-K2265)” of 116 °C. In addition, the solubility in water result in data set [3] was “disadvantageously high”.
Turning to `CC(O)COC1CCCCC1` (stereo not drawn) [Comparative Example 9, 1-cyclohexyloxy-2-propanol], in the data set “Viscosity”, the viscosity was 14 cP. This molecule also registered a Relative drying rate in the data set “Relative drying rate” of 36%. In data set [1], this molecule had a Boiling point of 208 °C. Moreover, in the data set “Flash point (JIS-K2265)”, the Flash point came out at 88 °C. In data set [4], the “Oil solubility characteristics (Drawing oil)” value is given as “E (Less than 2%)”, the “Oil solubility characteristics (Mineral oil)” value is recorded as “A (50% or more)”, the “Oil solubility characteristics (Press oil)” value is “A (50% or more)” and the “Oil solubility characteristics (Rosin oil)” value is on record as “C (10% to less than 20%)”. Moreover, in [3], the “dissolving power for oils” value is on record as “poor dissolving power for oils”, the drying rate result is given as “low drying rate”, the solubility in water entry is “high solubility in water” and the viscosity result was “high viscosity”. The “solubility in water” value in data set [2] is recorded as 1%.
Consider `CCCCCCOCCO` [Comparative Example 1, Ethylene glycol mono-n-hexyl ether], for which, in [1], the Boiling point was 208 °C. Also, in the data set “Flash point (JIS-K2265)”, the Flash point worked out at 82 °C. In data set [2], the “Solubility (In water)” value stood at 1.0% and the “Solubility (Water in)” value is reported as 18.8%.
The corresponding values for `CCOCC(C)OC1CCCCC1` (stereo not drawn) [Example 2, propylene glycol ethyl cyclohexyl ether] are 192 °C, 80 °C, 0.2% and 0.7%.
In the case of `CCCCOCC(C)O` (stereo not drawn) [compound 3, Propylene glycol mono-n-butyl ether], the Boiling point in data set [1] turned out to be 170 °C. Moreover, in “Flash point (JIS-K2265)”, the Flash point was determined as 59 °C. Also, in [2], the “Solubility (In water)” value was 5.6% and the “Solubility (Water in)” value was 14.9%.
For the molecule `CCCCOCC(C)OCCCC` (stereo not drawn) [compound 5, Propylene glycol di-n-butyl ether], the Boiling point in [1] amounted to 190 °C. The Flash point in the data set “Flash point (JIS-K2265)” was found to be 69 °C. In addition, in data set [2], the “Solubility (In water)” value is 2.0% and the “Solubility (Water in)” value turned out to be 0.6%.
For the molecule `C=C(C)C1CC=C(C)CC1` (stereo not drawn) [Comparative Example 6, Limonene], in “Separability from water”, the separability from water result is “good”. Moreover, the figures for the Flash point in “Flash point (JIS-K2265)” and in the data set “Flash point (JIS-K2265)” (result in words) were 45 °C and “low”, respectively.
On to `CCOCCOCCOCC` [Comparative Example 8, Diethylene glycol diethyl ether], for which the separability from water result in the data set “Separability from water” is on record as “poor”. This molecule displayed a Flash point in the data set “Flash point (JIS-K2265)” of 72 °C. Also, in data set [3], the solubility in water entry is given as “extremely high solubility in water” and the toxicity result was “high toxicity”.
For the molecule `COCC(C)OC1CCCCC1` (stereo not drawn) [Example 1, propylene glycol methyl cyclohexyl ether], the viscosity in “Viscosity” turned out to be 2.4 cP. In addition, the Relative drying rate in “Relative drying rate” is reported as 77%. In addition, in [5], the “results vs Comparative Example 9 (relative drying rate, viscosity, solubility in water, oil solubility)” value is on record as “very superior”. The molecule also came in with a Boiling point in [1] of 175 °C. The molecule further had a Flash point in “Flash point (JIS-K2265)” of 73 °C. In addition, in [4], the “Oil solubility characteristics (Drawing oil)” value is on record as “A (50% or more)”, the “Oil solubility characteristics (Mineral oil)” value is given as “A (50% or more)”, the “Oil solubility characteristics (Press oil)” value is given as “A (50% or more)” and the “Oil solubility characteristics (Rosin oil)” value was “A (50% or more)”. For the same molecule, in data set [2], the “Solubility (In water)” value is reported as 0.3%, the “Solubility (Water in)” value is on record as 1.4% and the “solubility in water” value came to 0.3%.
In data set [1] (Measured at 5 mm/Hg), `COCC(C)OC1CCCCC1O` (stereo not drawn) [Example 3, 2-hydroxycyclohexyloxymethoxypropane] yielded a Boiling point of 93 °C. In data set [2], the “Solubility (In water)” value turned out to be 2.7% and the “Solubility (Water in)” value is recorded as 11.7%.
Turning to `COCCOCCOC` [diethylene glycol dimethyl ether], in data set [3], the solubility in water entry was “extremely high solubility in water” and the toxicity entry is “high toxicity”.

Source of the values: patent US5414144A, “Propylene glycol cyclohexyl ether derivatives, method of producing same and uses thereof” (Asahi Kasei Kogyo Kabushiki Kaisha, priority 1993, dated 1995).
